According to US20080139623A1, “Amorphous and crystalline forms of pantoprazole magnesium salt” (priority 2006, published 2008):

What was measured:
Assay type in all cases: physicochemical
[1] = Solubility in water at 25° C. (saturated solution, HPLC assay); details: for solubility: in water at 25° C.
Procedure: The solubilities of amorphous pantoprazole magnesium and pantoprazole magnesium Form A were each measured in water at 25° C. The certain amount of amorphous sample and form A sample were added each to 50 ml of distillated water. The solutions were kept saturated during the experiment. The aliquots were taken, filtered and injected into HPLC by the method of assay determination for PNT-Mg and the concentrations were calculated by comparison of absorptions at certain wavelength against the known concentration of PNT-Mg standard.

[2] = Stability of crystalline form under heating (100° C., two weeks, PXRD); details: heated at 100° C. for two weeks, analyzed by PXRD
Procedure: The powder X-ray diffraction was performed on Scintag X-ray powder diffractometer model X'TRA with a solid state detector. Copper radiation of 1.5418 Å was used. The sample holder was a round standard aluminum sample holder with rough zero background. The scanning parameters were range: 2-40 degrees two-theta; scan mode: continuous scan; step size: 0.05 deg.; and at a rate of 5 deg/min.
Samples of crystalline pantoprazole magnesium Form C and Form A (prepared according to example 15) were each heated at 100° C. for two weeks. The samples were then analyzed by PXRD.

[3] = Analysis of particle size by light microscope in light oil
From the text: Samples of crystalline pantoprazole magnesium Forms A (prepared according to example 15), E, F, G, and H were each analyzed by light microscope in light oil. The results are depicted in FIGS. 29-33, respectively.

Substance	particle shape / description [3]	particle size [3]	further results
5-difluoromethoxy-2-[[3,4-dimethoxy-2-pyridinyl)methyl]sulfinyl]-1H-benzimidazole magnesium salt [amorphous pantoprazole magnesium]			solubility [1]: about 1.3 mg/ml; solubility in water relative to crystalline Form A ([1]; in water, amorphous form versus Form A prepared according to the '464 patent): approximately 6.5 times
5-difluoromethoxy-2-[[3,4-dimethoxy-2-pyridinyl)methyl]sulfinyl]-1H-benzimidazole magnesium salt [Form C]			crystalline form after heating (polymorphic stability) [2]: maintained its crystalline form
5-difluoromethoxy-2-[[3,4-dimethoxy-2-pyridinyl)methyl]sulfinyl]-1H-benzimidazole magnesium salt [Form E]	plate-shaped particles	less than 20 microns	
5-difluoromethoxy-2-[[3,4-dimethoxy-2-pyridinyl)methyl]sulfinyl]-1H-benzimidazole magnesium salt [Form A, reference compound]	plate-shaped particles	less than 50 microns	solubility [1]: about 0.2 mg/ml; crystalline form after heating (polymorphic stability) [2]: transformed to amorphous form
5-difluoromethoxy-2-[[3,4-dimethoxy-2-pyridinyl)methyl]sulfinyl]-1H-benzimidazole magnesium salt [Form G]		less than 10 microns	
5-difluoromethoxy-2-[[3,4-dimethoxy-2-pyridinyl)methyl]sulfinyl]-1H-benzimidazole magnesium salt [Form F]	spherical particles		
5-difluoromethoxy-2-[[3,4-dimethoxy-2-pyridinyl)methyl]sulfinyl]-1H-benzimidazole magnesium salt [Form H]	very small particles		
